Assay [1] concerns the target T1, EGFR^T790M/L858R (Homo sapiens, UniProt P00533, L858R/T790M).
T1 construct: purchased Millipore
Nature of the assay: kinase inhibitory activity test (ELISA), EGFR^T790M/L858R. It is filed as biochemical. To be noted: for IC50: ELISA, ATP 5 μM, 1 hour at 37° C.; for kinase inhibitory activity (in words): summary of Table 1. The method in brief: (§1)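 ELISA on poly(Glu,Tyr)4:1-coated plates; kinase reaction with 5 μM ATP (final) in 50 mM HEPES pH 7.4, 50 mM MgCl2, 5 mM MnCl2, 0.2 mM Na3VO4, 1 mM DTT, 1 h at 37° C. Phosphotyrosine detected via PY99/HRP and OPD at 490 nm; IC50 by four-parameter fit.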
In general terms: In an ELISA, binding on a coated surface is turned into a signal by an enzyme label.

The target of assay [2] is T2, EGFR^wt (Homo sapiens, UniProt P00533).
T2 construct: purchased Millipore
T2 sequence (P00533 25-1210): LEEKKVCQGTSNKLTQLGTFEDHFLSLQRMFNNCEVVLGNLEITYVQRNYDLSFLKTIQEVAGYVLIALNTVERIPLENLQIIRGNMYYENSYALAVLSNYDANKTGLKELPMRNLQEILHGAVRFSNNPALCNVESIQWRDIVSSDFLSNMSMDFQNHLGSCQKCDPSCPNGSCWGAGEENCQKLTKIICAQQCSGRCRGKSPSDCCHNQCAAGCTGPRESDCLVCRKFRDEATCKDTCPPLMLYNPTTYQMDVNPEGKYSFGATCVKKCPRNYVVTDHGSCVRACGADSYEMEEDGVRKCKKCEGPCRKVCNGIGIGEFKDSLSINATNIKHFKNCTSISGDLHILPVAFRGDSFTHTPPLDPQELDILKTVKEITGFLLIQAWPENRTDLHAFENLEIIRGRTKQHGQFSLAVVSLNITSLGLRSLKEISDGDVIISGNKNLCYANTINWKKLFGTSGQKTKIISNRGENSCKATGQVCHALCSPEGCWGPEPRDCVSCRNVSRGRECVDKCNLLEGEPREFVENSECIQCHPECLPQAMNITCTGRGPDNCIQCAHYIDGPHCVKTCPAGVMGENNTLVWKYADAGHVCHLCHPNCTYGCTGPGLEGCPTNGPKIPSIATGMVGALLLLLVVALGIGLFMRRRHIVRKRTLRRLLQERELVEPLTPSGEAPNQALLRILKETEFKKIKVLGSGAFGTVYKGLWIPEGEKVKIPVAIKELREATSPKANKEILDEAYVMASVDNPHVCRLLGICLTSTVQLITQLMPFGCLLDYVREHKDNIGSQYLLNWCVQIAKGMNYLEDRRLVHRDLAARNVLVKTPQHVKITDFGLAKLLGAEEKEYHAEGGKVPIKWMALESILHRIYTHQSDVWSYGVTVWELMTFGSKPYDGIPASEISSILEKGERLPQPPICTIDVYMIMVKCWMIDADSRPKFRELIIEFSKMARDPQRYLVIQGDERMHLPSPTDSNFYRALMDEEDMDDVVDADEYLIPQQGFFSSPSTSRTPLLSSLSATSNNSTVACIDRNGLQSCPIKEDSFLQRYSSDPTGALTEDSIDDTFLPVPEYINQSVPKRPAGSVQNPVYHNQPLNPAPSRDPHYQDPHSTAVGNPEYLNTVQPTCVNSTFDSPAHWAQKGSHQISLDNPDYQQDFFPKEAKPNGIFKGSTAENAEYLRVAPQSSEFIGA
Nature of the assay: kinase inhibitory activity test (ELISA), EGFR^WT. It is filed as biochemical. The following applies: ATP 5 μM, 1 hour at 37° C. The method in brief: as §1

For assay [3], the target named is T3, IGF-1R (Homo sapiens, UniProt P08069).
T3 construct: purchased Millipore
T3 sequence (P08069 31-1367): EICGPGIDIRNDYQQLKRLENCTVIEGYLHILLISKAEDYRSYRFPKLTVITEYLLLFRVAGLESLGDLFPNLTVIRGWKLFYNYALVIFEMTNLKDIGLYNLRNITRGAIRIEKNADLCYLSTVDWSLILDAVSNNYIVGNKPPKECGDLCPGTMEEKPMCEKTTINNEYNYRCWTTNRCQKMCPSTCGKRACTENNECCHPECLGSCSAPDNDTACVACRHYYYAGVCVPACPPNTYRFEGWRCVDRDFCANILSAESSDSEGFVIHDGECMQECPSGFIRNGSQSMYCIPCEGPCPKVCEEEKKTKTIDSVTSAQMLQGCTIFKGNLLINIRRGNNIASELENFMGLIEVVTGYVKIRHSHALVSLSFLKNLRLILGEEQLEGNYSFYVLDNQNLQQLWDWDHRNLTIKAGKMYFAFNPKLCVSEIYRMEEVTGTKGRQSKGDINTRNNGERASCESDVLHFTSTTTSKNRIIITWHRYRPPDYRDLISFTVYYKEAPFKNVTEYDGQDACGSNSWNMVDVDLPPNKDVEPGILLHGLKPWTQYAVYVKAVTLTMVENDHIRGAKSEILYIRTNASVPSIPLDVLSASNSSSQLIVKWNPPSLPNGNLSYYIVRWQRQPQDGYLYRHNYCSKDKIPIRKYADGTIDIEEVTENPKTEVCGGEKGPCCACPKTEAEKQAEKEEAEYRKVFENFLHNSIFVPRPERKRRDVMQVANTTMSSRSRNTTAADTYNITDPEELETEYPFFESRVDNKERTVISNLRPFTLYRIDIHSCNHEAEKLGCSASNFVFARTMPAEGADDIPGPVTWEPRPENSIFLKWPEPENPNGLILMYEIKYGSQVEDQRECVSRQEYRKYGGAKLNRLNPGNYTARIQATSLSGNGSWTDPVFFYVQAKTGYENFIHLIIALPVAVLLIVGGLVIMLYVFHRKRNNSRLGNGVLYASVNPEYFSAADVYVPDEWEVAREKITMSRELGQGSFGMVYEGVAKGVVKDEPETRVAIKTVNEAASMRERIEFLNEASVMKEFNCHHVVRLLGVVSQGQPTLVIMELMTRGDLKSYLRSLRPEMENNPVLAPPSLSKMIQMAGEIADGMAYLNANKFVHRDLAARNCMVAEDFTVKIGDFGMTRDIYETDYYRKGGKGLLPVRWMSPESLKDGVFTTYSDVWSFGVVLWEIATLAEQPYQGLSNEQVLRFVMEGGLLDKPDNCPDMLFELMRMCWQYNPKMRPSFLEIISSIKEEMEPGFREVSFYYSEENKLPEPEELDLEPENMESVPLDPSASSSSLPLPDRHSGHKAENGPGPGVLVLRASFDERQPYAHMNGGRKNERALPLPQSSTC
Nature of the assay: kinase inhibitory activity test (ELISA), IGF-1R. It is filed as biochemical. The following applies: ATP 5 μM, 1 hour at 37° C. In a few lines: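 Poly(Glu,Tyr)4:1-coated plates; kinase reacted 1 h at 37 °C with 5 μM ATP (final) in HEPES pH 7.4 buffer with Mg2+/Mn2+. Phosphotyrosine detected by PY99 and HRP anti-mouse IgG with OPD at 490 nm; IC50 from four-parameter fit.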

Assay [4] has as its system human epidermal carcinoma A431 cell line. The assay is described as follows: SRB proliferation assay, A431 cells. Format: cell-based. The following applies: read-out: IC50 A431. In a few lines:
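A431 cells in log phase are allowed to adhere for 24 h, then exposed to compound for 72 h in triplicate alongside DMSO controls. Cells are fixed with cold 10% TCA, stained with SRB, dye is solubilised in 10 mM Tris pH 10.5, and OD is read at 515 nm.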

The test system of assay [5] is human non-small cell lung cancer NCI-H1975 cell line. Nature of the assay: SRB proliferation assay, NCI-H1975 cells. Format: cell-based. To be noted: read-out: IC50 NCI-H1975. The method in brief:
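NCI-H1975 cells in log phase were allowed to adhere for 24 h, then treated with compound in triplicate for 72 h. Cells were TCA-fixed and SRB-stained, with OD read at 515 nm; IC50 derived from growth inhibition versus DMSO control.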
A general note: In SRB staining, fixed cells bind dye roughly in proportion to their protein.

Like-named read-outs stand apart in the source and are kept apart here.

The term IC50 denotes the midpoint of a concentration-inhibition curve.

T1 sequence (P00533 25-1210 T790M/L858R): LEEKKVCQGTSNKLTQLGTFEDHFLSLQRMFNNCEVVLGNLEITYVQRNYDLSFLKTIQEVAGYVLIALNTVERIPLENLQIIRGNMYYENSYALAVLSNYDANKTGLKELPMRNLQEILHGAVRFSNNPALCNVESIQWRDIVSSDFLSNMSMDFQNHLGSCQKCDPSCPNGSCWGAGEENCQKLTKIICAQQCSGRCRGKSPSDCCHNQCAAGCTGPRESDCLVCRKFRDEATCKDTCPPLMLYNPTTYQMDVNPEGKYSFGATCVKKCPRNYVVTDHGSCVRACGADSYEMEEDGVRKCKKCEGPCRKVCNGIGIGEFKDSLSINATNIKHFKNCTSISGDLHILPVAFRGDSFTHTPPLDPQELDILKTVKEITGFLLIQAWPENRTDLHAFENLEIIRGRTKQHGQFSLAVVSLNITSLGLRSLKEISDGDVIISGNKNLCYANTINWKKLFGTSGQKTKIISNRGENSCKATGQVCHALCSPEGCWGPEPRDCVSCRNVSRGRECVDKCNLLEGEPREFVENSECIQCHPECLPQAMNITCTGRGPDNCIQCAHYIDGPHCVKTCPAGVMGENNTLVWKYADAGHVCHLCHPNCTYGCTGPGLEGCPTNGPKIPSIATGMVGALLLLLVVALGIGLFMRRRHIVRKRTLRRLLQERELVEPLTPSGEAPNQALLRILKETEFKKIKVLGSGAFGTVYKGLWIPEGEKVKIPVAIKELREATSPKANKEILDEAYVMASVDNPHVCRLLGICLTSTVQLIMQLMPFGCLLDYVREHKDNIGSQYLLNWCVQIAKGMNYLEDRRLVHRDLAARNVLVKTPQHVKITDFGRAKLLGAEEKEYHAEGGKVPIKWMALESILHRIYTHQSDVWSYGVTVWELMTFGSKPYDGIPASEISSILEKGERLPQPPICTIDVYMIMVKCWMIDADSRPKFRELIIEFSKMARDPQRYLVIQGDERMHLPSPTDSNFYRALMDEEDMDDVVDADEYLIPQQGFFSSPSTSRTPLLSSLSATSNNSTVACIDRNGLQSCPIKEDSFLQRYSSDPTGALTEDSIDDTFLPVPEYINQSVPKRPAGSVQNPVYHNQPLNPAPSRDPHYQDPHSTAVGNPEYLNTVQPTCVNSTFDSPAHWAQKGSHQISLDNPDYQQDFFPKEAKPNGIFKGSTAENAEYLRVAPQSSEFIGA

With `COc1ccc(NC(=O)/C=C/CN(C)C)cc1Nc1nccc(Nc2ccc3ccccc3c2)n1` [CCB145242, (E)-N-((3-(4-((naphthalen-2-yl)amino)pyrimidin-2-yl)amino)-4-methoxyphenyl)-4-(dimethylamino)-2-butenamide], the IC50 in assay [1] is 0.0566 µM; in assay [2], 0.0541 µM; in assay [3] it was 0.0985 µM; in assay [4] (A-431, SRB, 72 h), 1.03 µM; in assay [5] (NCI-H1975, SRB, 72 h) it was 0.885 µM.

As to `C=CC(=O)Nc1cc(Nc2ncc(Cl)c(Nc3ccc4ccccc4c3)n2)c(OC)cc1N1CCC(N(C)C)CC1` [CCB120121, N-((5-((5 chloro-4-((naphthalen-2-yl)amino))pyrimidin-2-yl)amino)-2-(4-dimethylaminopiperidine)-4-methoxyphenyl)acrylamide], the half-inhibitory concentration (IC50) in assay [1] is 0.0013 µM; in assay [2], over 0.1 µM; in assay [3], 0.0137 µM; in assay [4] (A-431, SRB, 72 h) it was 0.324 µM; in assay [5] (NCI-H1975, SRB, 72 h), 0.004 µM.

As for `COc1ccc(NC(=O)/C=C/CN(C)C)cc1Nc1ncc(C)c(Nc2ccc3ccccc3c2)n1` [CCB145289, (E)-N-((3-((5-methyl-4-((naphthalen-2-yl)amino))pyrimidin-2-yl)amino)-4-methoxyphenyl)-4-(dimethylamino)-2-butenamide], the 50% inhibitory concentration (IC50) in assay [1] is 0.0729 µM; in assay [2], 0.233 µM; in assay [3] it was 0.103 µM; in assay [4] (A-431, SRB, 72 h), 0.839 µM; in assay [5] (NCI-H1975, SRB, 72 h) it was 1 µM.

For the molecule `C=CC(=O)Nc1ccc(OC)c(Nc2ncc(Cl)c(Nc3ccc4ccccc4c3)n2)c1` [CCB120027, N-((3-((5-chloro-4-((naphthalen-2-yl)amino))pyrimidin-2-yl)amino)-4-methoxyphenyl)acrylamide], the IC50 in assay [1] is 0.0022 µM; in assay [2], 0.172 µM; in assay [3] it was 0.263 µM; in assay [4] (A-431, SRB, 72 h), over 10 µM; in assay [5] (NCI-H1975, SRB, 72 h), 0.403 µM. Further, in assay [1], the “kinase inhibitory activity (in words)” value was “potent”.

Regarding `COc1ccc(NC(=O)/C=C/CN(C)C)cc1Nc1ncc(Cl)c(Nc2ccc3ncccc3c2)n1` [CCB145213, (E)-N-((3-((5-chloro-4-((quinolin-6-yl)amino))pyrimidin-2-yl)amino)-4-methoxyphenyl)-4-(dimethylamino)-2-butenamide], the IC50 in assay [1] came out at 0.0435 µM; in assay [2], 0.615 µM; in assay [3], 0.0371 µM; in assay [4] (A-431, SRB, 72 h), 0.857 µM; in assay [5] (NCI-H1975, SRB, 72 h), 0.24 µM.

In the case of `COc1ccc(NC(=O)/C=C/CN(C)C)cc1Nc1ncc(Cl)c(Nc2cnc3ccccc3c2)n1` [CCB145221, (E)-N-((3-((5-chloro-4-((quinolin-3-yl)amino))pyrimidin-2-yl)amino)-4-methoxyphenyl)-4-(dimethylamino)-2-butenamide], the 50% inhibitory concentration (IC50) in assay [1] is 0.0376 µM; in assay [2], 0.848 µM; in assay [3], 0.0125 µM; in assay [4] (A-431, SRB, 72 h), 0.646 µM; in assay [5] (NCI-H1975, SRB, 72 h) it was 0.17 µM.

`COc1ccc(NC(=O)/C=C/CN(C)C)cc1Nc1ncc(Br)c(Nc2ccc3ccccc3c2)n1` [CCB145286, (E)-N-((3-((5-bromo-4-((naphthalen-2-yl)amino))pyrimidin-2-yl)amino)-4-methoxyphenyl)-4-(dimethylamino)-2-butenamide]: the IC50 in assay [1] was 0.0225 µM; in assay [2], 0.254 µM; in assay [3], 0.0205 µM; in assay [4] (A-431, SRB, 72 h), 1.12 µM; in assay [5] (NCI-H1975, SRB, 72 h), 0.416 µM.

Turning to `COc1ccc(NC(=O)/C=C/CN(C)C)cc1Nc1ncc(Cl)c(Sc2ccc3ccccc3c2)n1` [CCB145291, (E)-N-((3-((5-chloro-4-((naphthalen-2-yl)sulfenyl))pyrimidin-2-yl)amino)-4-methoxyphenyl)-4-(dimethylamino)-2-butenamide], the IC50 is 0.159 µM in assay [1]; at least 10 µM in assay [2]; 0.347 µM in assay [3]; 11.1 µM in assay [4] (A-431, SRB, 72 h); 2.78 µM in assay [5] (NCI-H1975, SRB, 72 h).

Turning to `COc1ccc(NC(=O)/C=C/CN2CCCCC2)cc1Nc1ncc(Cl)c(Nc2ccc3ccccc3c2)n1` [CCB120024, (E)-N-((3-((5-chloro-4-((naphthalen-2-yl)amino))pyrimidin-2-yl)amino)-4-methoxyphenyl)-4-(piperidin-1-yl)-2-butenamide], the IC50 in assay [1] was found to be 0.0019 µM; in assay [2] it was 0.318 µM; in assay [3] it was 0.0354 µM; in assay [4] (A-431, SRB, 72 h), 6.93 µM; in assay [5] (NCI-H1975, SRB, 72 h), 0.319 µM. In addition, the “kinase inhibitory activity (in words)” value in assay [1] is “potent”.

As to `C=CC(=O)Nc1cc(CN(C)C)cc(Nc2ncc(Cl)c(Nc3ccc4ccccc4c3)n2)c1` [CCB120081, N-((3-((5-chloro-4-((naphthalen-2-yl)amino))pyrimidin-2-yl)amino)-5-(dimethylaminomethyl)phenyl)acrylamide], the half-inhibitory concentration (IC50) in assay [1] stood at 0.0051 µM; in assay [2] it was 0.17 µM; in assay [3] it was 0.0858 µM; in assay [4] (A-431, SRB, 72 h), 0.037 µM; in assay [5] (NCI-H1975, SRB, 72 h) it was 0.016 µM.

For `CN(C)C/C=C/C(=O)Nc1cccc(Nc2ncc(Br)c(Nc3ccc4ccccc4c3)n2)c1` [CCB145335, (E)-N-((3-((5-bromo-4-((naphthalen-2-yl)amino))pyrimidin-2-yl)amino)phenyl)-4-(dimethylamino)-2-butenamide], the IC50 in assay [1] is 0.0357 µM; in assay [2], 3.89 µM; in assay [3], 0.0906 µM; in assay [4] (A-431, SRB, 72 h), 2.59 µM; in assay [5] (NCI-H1975, SRB, 72 h) it was 2.48 µM.

On to `COc1ccc(NC(=O)/C=C/CN(C)C)cc1Nc1ncc(Cl)c(Nc2ccc3ccccc3c2)n1` [CCB118563, (E)-N-((3-((5-chloro-4-((naphthalen-2-yl)amino))pyrimidin-2-yl)amino)-4-methoxyphenyl)-4-(dimethylamino)-2-butenamide], for which the concentration for half-maximal inhibition (IC50) came to 0.0182 µM in assay [1]; 0.26 µM in assay [2]; 0.0147 µM in assay [3]; 1.13 µM in assay [4] (A-431, 72 h); 0.306 µM in assay [5] (NCI-H1975, 72 h).

Take `Cc1ccc(NC(=O)/C=C/CN(C)C)cc1Nc1ncc(Cl)c(Nc2ccc3ccccc3c2)n1` [CCB145340]: the IC50 in assay [1] came out at 0.0287 µM; in assay [2], 2.22 µM; in assay [3], 0.117 µM; in assay [4] (A-431, SRB, 72 h), 1.61 µM; in assay [5] (NCI-H1975, SRB, 72 h), 0.864 µM.

Turning to `COc1ccc(NC(=O)/C=C/CN(C)C)cc1Nc1ncc(C#N)c(Nc2ccc3ccccc3c2)n1` [CCB145293, (E)-N-((3-((5-cyano-4-((naphthalen-2-yl)amino))pyrimidin-2-yl)amino)-4-methoxyphenyl)-4-(dimethylamino)-2-butenamide], the IC50 in assay [1] worked out at 0.0226 µM; in assay [2], 0.173 µM; in assay [3] it was 0.193 µM; in assay [4] (A-431, SRB, 72 h), 1.3 µM; in assay [5] (NCI-H1975, SRB, 72 h), 0.327 µM.

Take `Cc1ccc(NC(=O)/C=C/CN(C)C)cc1Nc1ncc(Br)c(Nc2ccc3ccccc3c2)n1` [CCB145339, (E)-N-((3-((5-bromo-4-((naphthalen-2-yl)amino))pyrimidin-2-yl)amino)-4-methylphenyl)-4-(dimethylamino)-2-butenamide]: the IC50 in assay [1] was 0.0732 µM; in assay [2] it was 4.48 µM; in assay [3], 0.0483 µM; in assay [4] (A-431, SRB, 72 h), 2.19 µM; in assay [5] (NCI-H1975, SRB, 72 h), 0.959 µM.

As to `CC(C)Oc1ccc(NC(=O)/C=C/CN(C)C)cc1Nc1ncc(Br)c(Nc2ccc3ccccc3c2)n1` [CCB145385, (E)-N-((3-((5-bromo-4-((naphthalen-2-yl)amino))pyrimidin-2-yl)amino)-4-isopropoxyphenyl)-4-(dimethylamino)-2-butenamide], the half-maximal inhibitory concentration (IC50) came out at 0.177 µM in assay [1]; 3.62 µM in assay [2]; 0.316 µM in assay [3]; 7.58 µM in assay [4] (A-431, SRB, 72 h); 5.74 µM in assay [5] (NCI-H1975, SRB, 72 h).

With `COc1ccc(NC(=O)/C=C/CN(C)C)cc1Nc1ncc(OC)c(Nc2ccc3ccccc3c2)n1` [CCB145268, (E)-N-((3-((5-methoxy-4-((naphthalen-2-yl)amino))pyrimidin-2-yl)amino)-4-methoxyphenyl)-4-(dimethylamino)-2-butenamide], the concentration for half-maximal inhibition (IC50) in assay [1] is 0.102 µM; in assay [2], 0.225 µM; in assay [3] it was 0.182 µM; in assay [4] (A-431, SRB, 72 h), 1.11 µM; in assay [5] (NCI-H1975, SRB, 72 h) it was 1.16 µM.

`COc1ccc(NC(=O)/C=C/CN(C)C)cc1Nc1ncc(F)c(Nc2ccc3ccccc3c2)n1` [CCB145287, (E)-N-((3-((5-fluoro-4-((naphthalen-2-yl)amino))pyrimidin-2-yl)amino)-4-methoxyphenyl)-4-(dimethylamino)-2-butenamide]: the IC50 in assay [1] amounted to 0.032 µM; in assay [2] it was 0.131 µM; in assay [3], 0.151 µM; in assay [4] (A-431, SRB, 72 h), 0.611 µM; in assay [5] (NCI-H1975, SRB, 72 h), 0.375 µM.

These data come from patent publication US10059694B2, “2-aminopyrimidine compound and pharmaceutical composition and use thereof” (Shanghai Institute of Materia Medica, Chinese Academy of …, priority 2014, dated 2018).
